For experiment [1], the system named is Cyphoma digestive gland cytosolic GST. In words: Inhibition of CDNB-conjugating GST activity in digestive gland cytosol. The format is biochemical, Cyphoma gibbosum. The note with it: prostaglandins screened at 600 µM, 5% (v/v) DMSO, Figure 3.
Experiment [2] has as its system human mu-class GST M2-2. The arrangement: method as in PMID 12230403. The note with it: conversion to glutathione conjugate; read-out: Km for PGA2; cited from earlier work.
Experiment [3] relates to human mu-class GST M1a-a. Set-up: method as in PMID 9084911. The conditions noted are these: conversion to glutathione conjugate; read-out: Km for PGA2; cited from earlier work.
Experiment [4] concerns rat alpha-class GST A4-4. Set-up: method as in PMID 12230403. The conditions noted are these: conversion to glutathione conjugate; read-out: Km for PGA2; cited from earlier work.

On to `CCCCC[C@@](C)(O)/C=C/[C@H]1C=CC(=O)[C@@H]1C/C=C\CCCC(=O)O` [15(R)-15-methyl PGA2], for which the “inhibition of GST activity in comparison to solvent controls” value (from here on “inhibition of GST activity in comparison”) in experiment [1] is “most potent inhibitors”.

For orientation: Km means the substrate concentration at which the rate is half of its maximum. Turning to `CCCCC[C@H](O)/C=C/[C@H]1C=CC(=O)[C@@H]1C/C=C\CCCC(=O)O` [15(S)-PGA2, prostaglandin A2], the Michaelis constant (Km) was 7.6 µM in experiment [2], 26 µM in experiment [3] and 12 µM in experiment [4]. In addition, the “inhibition of GST activity in comparison” value in experiment [1] (600 µM) is listed as “most potent inhibitors”; in experiment [1] (listed as PGA2, 600 µM), “greatest inhibition”.

Take `CCCCC[C@H](O)/C=C/[C@H]1[C@H](O)CC(=O)[C@@H]1C/C=C\CCCC(=O)OC` [15(S)-PGE2-methyl ester]: the “inhibition of GST activity in comparison” value in experiment [1] is “little to no inhibitory activity”.

Take `CCCCC[C@H](O)/C=C/[C@@H]1[C@@H](C/C=C\CCCC(=O)OC)[C@@H](O)C[C@H]1O` [15(S)-PGF2α-methyl ester]: in experiment [1], the “inhibition of GST activity in comparison” value is given as “little to no inhibitory activity”.

These data come from article PMC2796389 (PLoS ONE, 2010).
